The term IC50 denotes the concentration needed to halve the response being measured. A lower IC50 goes with inhibition by little substance.

5 molecules from ChEMBL document CHEMBL5325440, “Design, synthesis, and anti-inflammatory activity characterization of novel brain-permeable HDAC6 inhibitors” (Eur J Med Chem, 2023) can be followed below.

The nature of data set [1]: Drug concentration in C57BL/6 mouse brain at 1 mg/kg, ip measured after 0.5 hrs by LC-MS/MS analysis. The conditions noted are these: read-out: Ct. Format: ADME, organism-based.
In the next data set the target is Histone deacetylase 3 (Homo sapiens, UniProt O15379). The experiment in a line: Inhibition of HDAC3 (unknown origin).
Chain of Histone deacetylase 3 (O15379 whole entry): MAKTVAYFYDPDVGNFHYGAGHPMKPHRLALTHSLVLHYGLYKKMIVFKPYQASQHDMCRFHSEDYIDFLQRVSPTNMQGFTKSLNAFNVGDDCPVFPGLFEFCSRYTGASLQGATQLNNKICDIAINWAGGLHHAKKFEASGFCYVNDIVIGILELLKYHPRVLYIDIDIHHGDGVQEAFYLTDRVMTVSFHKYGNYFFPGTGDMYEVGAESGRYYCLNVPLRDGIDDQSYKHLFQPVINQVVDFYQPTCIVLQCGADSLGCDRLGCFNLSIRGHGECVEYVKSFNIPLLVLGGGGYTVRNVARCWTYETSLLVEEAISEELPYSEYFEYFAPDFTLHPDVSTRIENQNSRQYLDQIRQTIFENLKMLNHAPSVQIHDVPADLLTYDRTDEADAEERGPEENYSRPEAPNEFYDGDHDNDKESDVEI
Data set [2] is described as follows: Ratio of drug concentration in brain to plasma of C57BL/6 mouse plasma at 1 mg/kg, ip measured after 3 hrs by LC-MS/MS analysis. The format is ADME, organism-based. To be noted: read-out: BPR.
Data set [3] is described as follows: Ratio of drug concentration in brain to plasma of C57BL/6 mouse plasma at 1 mg/kg, ip measured after 0.5 hr by LC-MS/MS analysis. Format: ADME, organism-based. To be noted: read-out: BPR.
Data set [4] concerns the target T1, Polyamine deacetylase HDAC10 (Homo sapiens, UniProt Q969S8).
T1 sequence (Q969S8 whole entry): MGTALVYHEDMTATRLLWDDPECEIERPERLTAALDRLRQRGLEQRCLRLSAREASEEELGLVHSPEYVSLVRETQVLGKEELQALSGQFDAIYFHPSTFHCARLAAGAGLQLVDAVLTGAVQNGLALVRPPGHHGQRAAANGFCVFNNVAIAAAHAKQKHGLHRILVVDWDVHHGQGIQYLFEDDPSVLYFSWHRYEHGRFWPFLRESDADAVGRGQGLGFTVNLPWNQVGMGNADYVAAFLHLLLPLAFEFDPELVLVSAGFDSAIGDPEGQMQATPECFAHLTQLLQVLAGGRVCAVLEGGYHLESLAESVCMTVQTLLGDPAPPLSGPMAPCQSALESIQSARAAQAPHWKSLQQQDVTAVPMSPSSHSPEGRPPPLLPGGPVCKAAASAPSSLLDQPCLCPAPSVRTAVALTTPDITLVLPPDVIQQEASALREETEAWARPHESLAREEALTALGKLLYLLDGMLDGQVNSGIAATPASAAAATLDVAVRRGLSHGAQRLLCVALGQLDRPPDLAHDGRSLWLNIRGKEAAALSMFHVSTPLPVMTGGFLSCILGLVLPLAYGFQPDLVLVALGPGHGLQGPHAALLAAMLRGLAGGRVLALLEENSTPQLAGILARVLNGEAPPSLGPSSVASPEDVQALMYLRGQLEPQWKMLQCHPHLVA
The experiment in a line: Inhibition of HDAC10 (unknown origin).

In a further data set the test system is BV-2. In words: Cytotoxicity against mouse BV-2 cells at 500 to 1000 nM incubated overnight in presence of LPS by LDH assay. To be noted: bv-2, 1 µM, dose 500-1000 nM. Format: toxicity, cell-based.
A further data set deals with T2, Histone deacetylase 8 (Homo sapiens, UniProt Q9BY41).
T2 sequence (Q9BY41 whole entry): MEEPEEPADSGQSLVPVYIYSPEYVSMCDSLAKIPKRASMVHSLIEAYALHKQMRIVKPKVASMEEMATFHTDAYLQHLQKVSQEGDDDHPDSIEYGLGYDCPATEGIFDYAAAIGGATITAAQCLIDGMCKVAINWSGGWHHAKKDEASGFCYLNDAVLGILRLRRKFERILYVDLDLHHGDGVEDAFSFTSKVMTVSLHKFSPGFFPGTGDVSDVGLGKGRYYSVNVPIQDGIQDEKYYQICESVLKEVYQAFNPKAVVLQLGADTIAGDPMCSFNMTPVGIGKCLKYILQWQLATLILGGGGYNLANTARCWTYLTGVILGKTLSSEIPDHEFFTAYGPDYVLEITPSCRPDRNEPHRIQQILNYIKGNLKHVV
The experiment in a line: Inhibition of HDAC8 (unknown origin).

A short description of data set [5]: Drug concentration in C57BL/6 mouse plasma at 1 mg/kg, ip measured after 0.5 hrs by LC-MS/MS analysis. Format: ADME, organism-based.
Data set [6] in a line: Drug concentration in C57BL/6 mouse brain at 1 mg/kg, ip measured after 1 hr by LC-MS/MS analysis. The conditions noted are these: read-out: Ct. The format is ADME, organism-based.
In another data set the target is T3, Histone deacetylase 11 (Homo sapiens, UniProt Q96DB2).
T3 sequence (Q96DB2 whole entry): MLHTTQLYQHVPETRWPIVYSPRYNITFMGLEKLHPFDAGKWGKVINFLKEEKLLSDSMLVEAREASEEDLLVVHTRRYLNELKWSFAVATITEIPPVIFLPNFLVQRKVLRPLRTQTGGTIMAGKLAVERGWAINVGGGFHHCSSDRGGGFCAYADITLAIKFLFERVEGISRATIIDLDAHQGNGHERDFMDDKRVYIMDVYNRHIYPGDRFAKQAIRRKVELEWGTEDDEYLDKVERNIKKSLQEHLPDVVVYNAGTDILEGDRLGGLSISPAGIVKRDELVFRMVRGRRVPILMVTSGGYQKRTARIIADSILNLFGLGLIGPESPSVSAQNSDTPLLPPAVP
The experiment in a line: Inhibition of HDAC11 (unknown origin).

Data set [7] is described as follows: Ratio of drug concentration in brain to plasma of C57BL/6 mouse plasma at 1 mg/kg, ip measured after 1 hr by LC-MS/MS analysis. Format: ADME, organism-based. The conditions noted are these: read-out: BPR.
Data set [8] in a line: Drug concentration in C57BL/6 mouse brain at 1 mg/kg, ip measured after 3 hrs by LC-MS/MS analysis. The conditions noted are these: read-out: Ct. Format: ADME, organism-based.
Another data set has as its target Histone deacetylase 9 (Homo sapiens, UniProt Q9UKV0). The experiment in a line: Inhibition of HDAC9 (unknown origin).
The target in a further data set is Histone deacetylase 4 (Homo sapiens, UniProt P56524). In words: Inhibition of HDAC4 (unknown origin).
Chain of Histone deacetylase 4 (P56524 whole entry): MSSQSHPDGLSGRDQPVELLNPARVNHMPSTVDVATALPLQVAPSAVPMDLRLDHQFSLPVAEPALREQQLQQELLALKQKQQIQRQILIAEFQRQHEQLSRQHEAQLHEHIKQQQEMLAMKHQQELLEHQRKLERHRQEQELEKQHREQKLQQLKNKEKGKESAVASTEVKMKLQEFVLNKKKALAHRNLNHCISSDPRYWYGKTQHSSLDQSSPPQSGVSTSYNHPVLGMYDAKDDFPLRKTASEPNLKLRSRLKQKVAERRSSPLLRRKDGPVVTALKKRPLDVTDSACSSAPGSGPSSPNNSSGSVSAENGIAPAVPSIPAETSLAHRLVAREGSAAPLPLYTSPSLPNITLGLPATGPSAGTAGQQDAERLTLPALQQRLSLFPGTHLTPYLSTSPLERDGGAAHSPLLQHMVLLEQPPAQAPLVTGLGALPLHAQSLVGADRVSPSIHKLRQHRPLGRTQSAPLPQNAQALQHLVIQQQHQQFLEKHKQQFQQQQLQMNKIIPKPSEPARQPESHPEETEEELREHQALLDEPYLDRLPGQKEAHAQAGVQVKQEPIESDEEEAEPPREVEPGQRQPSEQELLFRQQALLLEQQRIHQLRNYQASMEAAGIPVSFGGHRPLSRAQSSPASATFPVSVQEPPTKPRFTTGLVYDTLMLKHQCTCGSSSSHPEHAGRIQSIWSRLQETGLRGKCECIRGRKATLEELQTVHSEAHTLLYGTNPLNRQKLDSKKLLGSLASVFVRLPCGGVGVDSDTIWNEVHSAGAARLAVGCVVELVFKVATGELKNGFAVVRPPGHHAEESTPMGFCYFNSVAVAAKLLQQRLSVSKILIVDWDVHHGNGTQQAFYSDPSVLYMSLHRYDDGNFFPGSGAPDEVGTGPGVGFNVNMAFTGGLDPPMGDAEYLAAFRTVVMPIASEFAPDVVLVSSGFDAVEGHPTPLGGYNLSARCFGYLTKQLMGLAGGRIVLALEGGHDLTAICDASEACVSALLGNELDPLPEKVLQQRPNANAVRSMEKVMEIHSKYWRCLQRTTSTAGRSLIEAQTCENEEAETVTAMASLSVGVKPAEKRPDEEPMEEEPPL
For another data set, the target named is Histone deacetylase 5 (Homo sapiens, UniProt Q9UQL6). In words: Inhibition of HDAC5 (unknown origin).
Chain of Histone deacetylase 5 (Q9UQL6 whole entry): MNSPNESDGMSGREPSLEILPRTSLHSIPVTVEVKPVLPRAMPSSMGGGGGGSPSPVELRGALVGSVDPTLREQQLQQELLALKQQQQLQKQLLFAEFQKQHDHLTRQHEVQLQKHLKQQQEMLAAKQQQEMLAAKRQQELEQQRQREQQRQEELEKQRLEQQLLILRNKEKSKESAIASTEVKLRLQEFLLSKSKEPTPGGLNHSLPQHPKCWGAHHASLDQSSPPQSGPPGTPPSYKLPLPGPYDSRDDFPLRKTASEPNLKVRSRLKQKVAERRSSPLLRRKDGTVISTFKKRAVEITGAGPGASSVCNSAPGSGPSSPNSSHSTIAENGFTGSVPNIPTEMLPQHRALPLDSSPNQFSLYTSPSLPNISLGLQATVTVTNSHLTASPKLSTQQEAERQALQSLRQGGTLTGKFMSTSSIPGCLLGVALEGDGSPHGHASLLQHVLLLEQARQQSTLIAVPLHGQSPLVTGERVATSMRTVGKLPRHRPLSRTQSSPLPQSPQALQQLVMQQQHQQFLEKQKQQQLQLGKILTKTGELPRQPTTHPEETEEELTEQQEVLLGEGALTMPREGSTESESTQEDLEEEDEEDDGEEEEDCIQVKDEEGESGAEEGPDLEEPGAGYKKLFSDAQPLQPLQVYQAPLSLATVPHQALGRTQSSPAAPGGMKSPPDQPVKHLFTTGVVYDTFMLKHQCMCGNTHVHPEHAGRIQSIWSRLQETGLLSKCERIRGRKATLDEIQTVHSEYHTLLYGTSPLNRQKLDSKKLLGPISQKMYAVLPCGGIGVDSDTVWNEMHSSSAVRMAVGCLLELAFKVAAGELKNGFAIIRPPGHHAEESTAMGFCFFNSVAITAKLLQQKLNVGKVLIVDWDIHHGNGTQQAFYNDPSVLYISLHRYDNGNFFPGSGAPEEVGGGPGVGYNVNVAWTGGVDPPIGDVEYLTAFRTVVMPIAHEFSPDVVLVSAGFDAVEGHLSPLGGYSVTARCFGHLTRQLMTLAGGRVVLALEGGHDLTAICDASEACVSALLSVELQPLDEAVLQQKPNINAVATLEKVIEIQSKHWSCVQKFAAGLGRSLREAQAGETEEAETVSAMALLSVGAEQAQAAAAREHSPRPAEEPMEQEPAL
Data set [9] is described as follows: Drug concentration in C57BL/6 mouse plasma at 1 mg/kg, ip measured after 1 hr by LC-MS/MS analysis. The format is ADME, organism-based.
A further data set concerns the target Histone deacetylase 2 (Homo sapiens, UniProt Q92769). In words: Inhibition of HDAC2 (unknown origin).
The nature of data set [10]: Drug concentration in C57BL/6 mouse plasma at 1 mg/kg, ip measured after 3 hrs by LC-MS/MS analysis. Format: ADME, organism-based.
Data set [11] can be described thus: Drug uptake in mouse brain at 3 mg/kg measured at upto 60 mins by PET imaging based analysis. The conditions noted are these: in vivo, 1 h. The format is ADME, organism-based.
Data set [12] concerns the target T4, Protein deacetylase HDAC6 (Homo sapiens, UniProt Q9UBN7).
T4 sequence (Q9UBN7 whole entry): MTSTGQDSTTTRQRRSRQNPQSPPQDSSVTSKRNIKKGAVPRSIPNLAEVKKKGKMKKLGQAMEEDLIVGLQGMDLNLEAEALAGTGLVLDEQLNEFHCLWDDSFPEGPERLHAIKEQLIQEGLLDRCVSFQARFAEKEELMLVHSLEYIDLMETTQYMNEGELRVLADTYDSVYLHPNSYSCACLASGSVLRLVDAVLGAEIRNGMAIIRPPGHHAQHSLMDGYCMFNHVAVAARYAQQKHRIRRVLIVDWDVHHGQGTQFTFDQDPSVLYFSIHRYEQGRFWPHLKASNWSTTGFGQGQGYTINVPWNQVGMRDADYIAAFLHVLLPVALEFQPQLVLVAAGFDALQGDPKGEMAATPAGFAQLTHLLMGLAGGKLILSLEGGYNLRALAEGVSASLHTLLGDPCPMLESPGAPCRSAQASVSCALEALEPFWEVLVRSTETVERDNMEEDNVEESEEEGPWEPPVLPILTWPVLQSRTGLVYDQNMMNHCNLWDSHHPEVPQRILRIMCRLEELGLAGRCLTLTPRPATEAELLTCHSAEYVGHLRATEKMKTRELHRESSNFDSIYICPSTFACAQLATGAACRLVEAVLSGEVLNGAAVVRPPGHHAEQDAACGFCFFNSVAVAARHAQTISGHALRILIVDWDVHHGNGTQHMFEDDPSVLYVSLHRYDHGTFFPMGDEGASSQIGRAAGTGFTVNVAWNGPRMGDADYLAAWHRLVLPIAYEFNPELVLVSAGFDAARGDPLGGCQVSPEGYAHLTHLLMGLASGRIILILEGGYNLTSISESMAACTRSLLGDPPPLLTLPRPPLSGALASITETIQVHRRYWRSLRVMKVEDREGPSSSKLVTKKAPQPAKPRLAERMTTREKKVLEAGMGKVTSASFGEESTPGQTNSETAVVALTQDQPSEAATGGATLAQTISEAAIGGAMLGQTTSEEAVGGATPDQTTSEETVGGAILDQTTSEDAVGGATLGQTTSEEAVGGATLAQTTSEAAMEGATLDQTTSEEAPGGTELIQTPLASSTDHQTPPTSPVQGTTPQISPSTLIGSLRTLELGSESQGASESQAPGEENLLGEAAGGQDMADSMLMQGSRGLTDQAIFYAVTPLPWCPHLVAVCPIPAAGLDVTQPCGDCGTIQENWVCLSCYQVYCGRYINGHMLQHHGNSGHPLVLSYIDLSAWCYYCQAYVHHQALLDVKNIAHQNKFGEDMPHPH
In words: Inhibition of HDAC6 (unknown origin).

In a further data set the target is Histone deacetylase 1 (Homo sapiens, UniProt Q13547). In words: Inhibition of HDAC1 (unknown origin).
Chain of Histone deacetylase 1 (Q13547 whole entry): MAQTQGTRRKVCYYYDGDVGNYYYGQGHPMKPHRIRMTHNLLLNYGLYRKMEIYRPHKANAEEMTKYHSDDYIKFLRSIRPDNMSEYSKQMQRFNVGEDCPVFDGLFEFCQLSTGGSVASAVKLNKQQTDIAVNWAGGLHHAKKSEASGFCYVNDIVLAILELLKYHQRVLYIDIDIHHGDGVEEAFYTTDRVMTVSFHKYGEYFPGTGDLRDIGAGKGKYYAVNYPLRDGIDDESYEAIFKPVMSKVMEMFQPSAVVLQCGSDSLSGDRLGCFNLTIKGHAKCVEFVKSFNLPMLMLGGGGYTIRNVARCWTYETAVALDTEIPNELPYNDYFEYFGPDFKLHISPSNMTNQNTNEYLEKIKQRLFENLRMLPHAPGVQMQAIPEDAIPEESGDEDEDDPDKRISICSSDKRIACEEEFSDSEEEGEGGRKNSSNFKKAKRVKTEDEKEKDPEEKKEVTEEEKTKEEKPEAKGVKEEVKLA
Data set [13] in a line: Drug accumulation in mouse heart measured after 5 mins post injection. The format is ADME, tissue-based. To be noted: in vivo.
Data set [14] is described as follows: Drug accumulation in mouse lung measured after 5 mins post injection. The format is ADME, tissue-based. The conditions noted are these: in vivo.
The nature of data set [15]: Drug accumulation in mouse liver measured after 5 mins post injection. Format: ADME, tissue-based. To be noted: in vivo.
Data set [16] can be described thus: Drug accumulation in mouse liver measured after 60 mins post injection. To be noted: in vivo, 1 h. The format is ADME, tissue-based.
The nature of data set [17]: Drug accumulation in mouse kidney measured after 5 mins post injection. The format is ADME, tissue-based. The conditions noted are these: in vivo.
The nature of data set [18]: Drug accumulation in mouse spleen measured after 5 mins post injection. The format is ADME, tissue-based. The conditions noted are these: in vivo.
A short description of data set [19]: Drug accumulation in mouse kidney measured after 60 mins post injection. The format is ADME, tissue-based. To be noted: in vivo, 1 h.

Chain of Histone deacetylase 2 (Q92769 whole entry): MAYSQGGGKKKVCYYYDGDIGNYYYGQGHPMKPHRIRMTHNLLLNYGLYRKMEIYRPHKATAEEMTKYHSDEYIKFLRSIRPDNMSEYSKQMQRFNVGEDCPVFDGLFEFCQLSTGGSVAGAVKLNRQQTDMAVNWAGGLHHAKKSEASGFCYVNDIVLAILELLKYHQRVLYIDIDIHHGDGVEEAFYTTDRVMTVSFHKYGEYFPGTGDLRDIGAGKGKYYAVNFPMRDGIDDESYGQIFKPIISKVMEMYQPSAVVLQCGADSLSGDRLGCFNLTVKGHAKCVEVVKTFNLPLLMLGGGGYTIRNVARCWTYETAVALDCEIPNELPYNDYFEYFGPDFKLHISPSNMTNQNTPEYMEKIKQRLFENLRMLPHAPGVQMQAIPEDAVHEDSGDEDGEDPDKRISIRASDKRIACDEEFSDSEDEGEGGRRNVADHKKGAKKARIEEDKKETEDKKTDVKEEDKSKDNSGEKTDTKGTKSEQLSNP
Chain of Histone deacetylase 9 (Q9UKV0 whole entry): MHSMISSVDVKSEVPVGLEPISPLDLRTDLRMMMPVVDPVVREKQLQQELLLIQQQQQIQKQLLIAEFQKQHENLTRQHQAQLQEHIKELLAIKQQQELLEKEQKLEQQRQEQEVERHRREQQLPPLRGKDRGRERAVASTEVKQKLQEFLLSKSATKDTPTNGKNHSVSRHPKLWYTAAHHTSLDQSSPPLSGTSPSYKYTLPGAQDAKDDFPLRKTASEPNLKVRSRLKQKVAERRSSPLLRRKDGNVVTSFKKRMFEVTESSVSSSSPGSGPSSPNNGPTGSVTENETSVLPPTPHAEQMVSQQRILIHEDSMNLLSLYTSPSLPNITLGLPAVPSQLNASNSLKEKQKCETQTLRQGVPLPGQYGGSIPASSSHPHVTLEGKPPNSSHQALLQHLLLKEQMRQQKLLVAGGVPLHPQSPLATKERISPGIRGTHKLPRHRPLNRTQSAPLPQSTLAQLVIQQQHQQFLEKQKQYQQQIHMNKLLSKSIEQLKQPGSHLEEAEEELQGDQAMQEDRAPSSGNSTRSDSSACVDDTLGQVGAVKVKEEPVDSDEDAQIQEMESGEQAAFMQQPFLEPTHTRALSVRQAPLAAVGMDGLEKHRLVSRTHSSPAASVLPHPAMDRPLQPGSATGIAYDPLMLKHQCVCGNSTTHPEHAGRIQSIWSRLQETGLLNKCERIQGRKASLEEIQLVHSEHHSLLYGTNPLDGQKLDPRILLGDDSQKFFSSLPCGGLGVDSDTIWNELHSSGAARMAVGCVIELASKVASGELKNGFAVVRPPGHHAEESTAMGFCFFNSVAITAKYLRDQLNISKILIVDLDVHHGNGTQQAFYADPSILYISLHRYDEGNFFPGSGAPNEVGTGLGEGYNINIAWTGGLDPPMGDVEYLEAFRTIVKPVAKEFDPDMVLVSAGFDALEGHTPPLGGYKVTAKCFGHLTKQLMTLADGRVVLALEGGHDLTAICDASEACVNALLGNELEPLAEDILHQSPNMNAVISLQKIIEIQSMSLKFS

With `O=C(NO)c1ccc(CN2CCCc3cccnc32)c(F)c1`, the values for the concentration at 0.5 h in [1] and in [5] were 13.2 ng/mL and 6.21 ng/mL, respectively. Moreover, the IC50 was 568 nM on Histone deacetylase 3; 269 nM in [4]; 597 nM at Histone deacetylase 8; 8.61 µM against Histone deacetylase 11; 701 nM at Histone deacetylase 9; 578 nM at Histone deacetylase 4. For the same molecule, the IC50 is 1850 nM on Histone deacetylase 5 and more than 10 µM at Histone deacetylase 2. For the same molecule, in [2], the Kp at 3 h was found to be 1.3. Also, in [3], the Kp at 0.5 h was found to be 2.1. For the same molecule, in the data set on BV-2, the Activity entry was “Non-Toxic”. Further, the concentration at 1 h was 6.48 ng/mL in [6] and 4.32 ng/mL in data set [9]. The Kp at 1 h in data set [7] came to 1.5. Further, the values for the concentration at 3 h in data set [8] and in data set [10] were 1.07 ng/mL and 0.82 ng/mL, respectively.

`O=C(NO)c1ccc(CNc2cccc3ccc([18F])nc23)cc1` returned an SUV in data set [11] of 0.35.

With `O=C(NO)c1ccc(CNC2CCCc3cccnc32)cc1` (stereo unspecified), the IC50 amounted to 86.1 nM in data set [12] and 4.71 µM against Histone deacetylase 1.

As to `O=C(NO)c1ccc(CNC2CCCc3cccnc32)c(F)c1` (stereo unspecified), the values for the IC50 (in data set [12]; at Histone deacetylase 1) were 63 nM and 5.05 µM, respectively.

For `O=C(NO)c1ccc(CN2CCCc3cccnc32)c([18F])c1`, the Drug uptake in data set [13] was more than 10 %ID/cc; in data set [14], “Active”; in data set [15], more than 10 %ID/cc; in data set [16], “Active”; in data set [17], more than 10 %ID/cc; in [18] it was “Active”. Besides, the Drug uptake result in data set [19] was “Active”. In data set [11], this molecule showed an SUV of 0.6.
